The source of these data is PMC3677594, “Characterization of a novel Entamoeba histolytica strain from Burkina Faso, Africa, possessing a unique hexokinase-2 gene” (Parasite, 2011).

Positions count from the first letter of the chain named.

Holding throughout (assay type): biochemical
Experiment [1] addresses T1, HXK-1 (Entamoeba nuttalli, UniProt C5NNG5).
T1 construct: native full-length enzyme in freeze-thaw lysate, resolved by IEF or starch gel
T1 sequence (C5NNG5 1-445): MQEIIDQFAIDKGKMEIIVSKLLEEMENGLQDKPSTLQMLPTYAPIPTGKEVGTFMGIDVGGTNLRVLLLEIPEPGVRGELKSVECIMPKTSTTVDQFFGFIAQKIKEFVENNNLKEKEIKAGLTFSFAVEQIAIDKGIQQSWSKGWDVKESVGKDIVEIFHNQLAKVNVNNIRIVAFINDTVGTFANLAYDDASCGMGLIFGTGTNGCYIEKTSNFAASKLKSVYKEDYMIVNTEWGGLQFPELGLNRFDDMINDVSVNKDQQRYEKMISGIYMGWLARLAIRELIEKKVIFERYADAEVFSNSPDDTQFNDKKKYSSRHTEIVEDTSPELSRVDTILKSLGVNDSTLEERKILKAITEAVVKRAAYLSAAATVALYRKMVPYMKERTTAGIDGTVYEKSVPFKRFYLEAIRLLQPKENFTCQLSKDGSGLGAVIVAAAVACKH
Kind of experiment: in-gel glucokinase activity stain after IEF or starch gel. Particulars: ATP; G6PDH-coupled, NADPH-formazan read-out.

The target of experiment [2] is T2, HXK-2 (Entamoeba dispar, UniProt O09488).
T2 construct: gene hxk2; native full-length enzyme in freeze-thaw lysate, resolved by IEF or starch gel
T2 sequence (O09488 1-445): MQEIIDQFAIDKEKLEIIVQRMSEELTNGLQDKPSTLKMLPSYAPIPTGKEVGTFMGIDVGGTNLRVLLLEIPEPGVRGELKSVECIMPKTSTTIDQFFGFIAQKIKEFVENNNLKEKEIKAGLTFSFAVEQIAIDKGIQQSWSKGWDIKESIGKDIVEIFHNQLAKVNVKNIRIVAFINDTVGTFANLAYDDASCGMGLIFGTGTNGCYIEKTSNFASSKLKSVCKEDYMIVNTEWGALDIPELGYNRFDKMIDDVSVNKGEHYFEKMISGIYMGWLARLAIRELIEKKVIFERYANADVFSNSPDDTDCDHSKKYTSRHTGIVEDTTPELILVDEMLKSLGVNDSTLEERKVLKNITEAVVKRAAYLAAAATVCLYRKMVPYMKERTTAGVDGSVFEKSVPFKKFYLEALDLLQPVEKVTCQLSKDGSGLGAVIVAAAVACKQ
Described as above. Particulars: ATP; G6PDH-coupled, NADPH-formazan read-out.

The target in experiment [3] is T3, HXK-2 (Entamoeba nuttalli, UniProt C5NNG6).
T3 construct: gene ENUP19_0206G0024; native full-length enzyme in freeze-thaw lysate, resolved by IEF or starch gel
T3 sequence (C5NNG6 1-445): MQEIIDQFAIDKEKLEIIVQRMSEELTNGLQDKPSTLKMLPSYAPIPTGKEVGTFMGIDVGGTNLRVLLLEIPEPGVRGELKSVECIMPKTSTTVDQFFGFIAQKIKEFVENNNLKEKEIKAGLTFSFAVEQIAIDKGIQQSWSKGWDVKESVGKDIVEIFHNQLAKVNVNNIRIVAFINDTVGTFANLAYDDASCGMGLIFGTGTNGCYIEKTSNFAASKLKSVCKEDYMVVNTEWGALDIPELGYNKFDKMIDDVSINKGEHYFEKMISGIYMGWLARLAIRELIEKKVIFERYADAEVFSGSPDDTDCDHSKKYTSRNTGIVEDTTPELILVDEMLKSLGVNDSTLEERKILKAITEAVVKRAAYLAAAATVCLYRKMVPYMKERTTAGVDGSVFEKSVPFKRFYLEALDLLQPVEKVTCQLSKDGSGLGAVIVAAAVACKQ
Described as above. The settings on record: ATP; G6PDH-coupled, NADPH-formazan read-out.

Experiment [4] addresses T4, HXK-1 (Entamoeba dispar, UniProt O09487).
T4 construct: gene hxk1; native full-length enzyme in freeze-thaw lysate, resolved by IEF or starch gel
The experiment is described as above. The settings on record: ATP; G6PDH-coupled, NADPH-formazan read-out.

Experiment [5] has as its target T5, HXK-2 (Entamoeba histolytica, UniProt A0A8U0WP47).
T5 construct: gene EHI_098560; native full-length enzyme in freeze-thaw lysate, resolved by IEF or starch gel
T5 sequence (A0A8U0WP47 1-445): T3 sequence (C5NNG6 1-445) with V153I, V168I, V232I, I354M
The experiment is described as above. Particulars: ATP; G6PDH-coupled, NADPH-formazan read-out.

Experiment [6] has as its target T6, HXK-1 (Entamoeba histolytica, UniProt A0A8U0WP42).
T6 construct: gene EHI_098290; native full-length enzyme in freeze-thaw amoeba lysate, resolved by IEF or starch gel
T6 sequence (A0A8U0WP42 1-445): T1 sequence (C5NNG5 1-445) with G13E, V153I, V168I
The description is as above. The settings on record: ATP; G6PDH-coupled, NADPH-formazan read-out.

Experiment [7] deals with T4, HXK-1. Kind of experiment: in-gel mannokinase activity stain after IEF. Particulars: ATP; coupled with MPI, GPI and G6PDH XV, or directly with G6PDH II.
Experiment [8] concerns the target T1, HXK-1. Kind of experiment: in-gel mannokinase activity stain after IEF. The settings on record: ATP; coupled with MPI, GPI and G6PDH XV, or directly with G6PDH II.
The target of experiment [9] is T3, HXK-2. Kind of experiment: in-gel mannokinase activity stain after IEF. Particulars: ATP; coupled with MPI, GPI and G6PDH XV, or directly with G6PDH II.
In experiment [10] the target is T6, HXK-1. Kind of experiment: in-gel mannokinase activity stain after IEF. The settings on record: ATP; coupled with MPI, GPI and G6PDH XV, or directly with G6PDH II.
Experiment [11] concerns the target T2, HXK-2. Kind of experiment: in-gel mannokinase activity stain after IEF. Particulars: ATP; coupled with MPI, GPI and G6PDH XV, or directly with G6PDH II.
In experiment [12] the target is T5, HXK-2. Kind of experiment: in-gel mannokinase activity stain after IEF. Particulars: ATP; coupled with MPI, GPI and G6PDH XV, or directly with G6PDH II.

T4 sequence (O09487 entry or part of it): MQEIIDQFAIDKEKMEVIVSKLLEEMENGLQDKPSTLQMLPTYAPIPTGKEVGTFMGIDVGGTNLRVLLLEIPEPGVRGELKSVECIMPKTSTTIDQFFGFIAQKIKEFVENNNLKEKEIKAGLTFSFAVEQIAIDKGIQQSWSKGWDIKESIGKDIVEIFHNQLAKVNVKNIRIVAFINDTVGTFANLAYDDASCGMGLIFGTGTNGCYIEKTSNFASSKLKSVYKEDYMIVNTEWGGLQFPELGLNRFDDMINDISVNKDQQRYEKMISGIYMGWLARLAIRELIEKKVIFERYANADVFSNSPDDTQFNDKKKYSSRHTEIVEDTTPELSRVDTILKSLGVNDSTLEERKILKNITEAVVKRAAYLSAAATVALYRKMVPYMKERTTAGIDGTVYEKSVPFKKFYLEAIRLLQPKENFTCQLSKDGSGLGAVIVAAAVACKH

Consider `OC[C@H]1OC(O)[C@H](O)[C@@H](O)[C@@H]1O` (stereo partly drawn) [glucose], for which the “in-gel glucokinase activity stain after IEF or starch gel” value at HXK-1 [1], on HXK-2 [2], at HXK-2 [3], at HXK-1 [4], at HXK-2 [5] and on HXK-1 [6] was “substrate specificity of the HXKs of the six strains of Entamoeba spp. to phosphorylated glucose” each time.
In the case of `OC[C@H]1OC(O)[C@@H](O)[C@@H](O)[C@@H]1O` (stereo partly drawn) [mannose], the “in-gel mannokinase activity stain after IEF” value is “no differences in mannokinase activity were observed between the isoenzymes HXK-1 and HXK-2” on HXK-1 [7]; “no differences in mannokinase activity were observed between the isoenzymes HXK-1 and HXK-2” at HXK-1 [8]; “no differences in mannokinase activity were observed between the isoenzymes HXK-1 and HXK-2” on HXK-2 [9]; “no differences in mannokinase activity were observed between the isoenzymes HXK-1 and HXK-2” at HXK-1 [10]; “no differences in mannokinase activity were observed between the isoenzymes HXK-1 and HXK-2” at HXK-2 [11]; “no differences in mannokinase activity were observed between the isoenzymes HXK-1 and HXK-2” on HXK-2 [12].
